Assay results from patent publication US20060293395A1, “Methods for treating a mammal before, during and after cardiac arrest” (priority 2004, published 2006).
“Also recorded” adds a separate entry of the source.

Key:
Male Sprague-Dawley rats [1] = assay: Example 1: post-resuscitation myocardial dysfunction after VF cardiac arrest, drug infusion for 240 min post-resuscitation
Male Sprague-Dawley rats [2] = assay: Example 2: dobutamine vs levosimendan for post-resuscitation myocardial failure, 8 min untreated VF + 6 min precordial compression; type: in vivo, rat
Experimental: The animals were anesthetized following intraperitoneal injection of 45 mg kg^−1 pentobarbital. […] No anesthetic agent was administrated during the 30 minute interval prior to inducing cardiac arrest.
Pressures were measured with a high sensitivity pressure transducer (Model 42584-01; Abbott Critical Care System, North Chicago, Ill.). The optimally damped frequency response of the system was 22 Hz. […] Guided by pressure monitoring, the catheter was slowly withdrawn into the right atrium. Right atrial pressure was measured with reference to the mid-chest with another high sensitivity pressure transducer (Abbott model 42584-01). This catheter also served as an injection site for the thermal tracer. A 4 F polyethylene catheter (model C-PMS401J; Cook Critical Care, Bloomington, Ind.) was advanced through the right external jugular vein into the right atrium. A precurved guide wire supplied with the catheter was then advanced through the catheter into the right ventricle until an endocardial electrogram was observed. Another 23-gauge polyethylene catheter (PE 50) was advanced through the left femoral artery into the abdominal aorta for measurement of aortic pressure with the same Abbott high sensitivity transducer and also for sampling arterial blood. […] The thermocouple provided for measurements of blood temperature and thermodilution cardiac output. […] An additional PE 50 catheter was advanced into right femoral vein for drug infusion. EKG lead II was continuously recorded.
Experimental Procedure: A total of 15 animals were investigated. The investigators were blinded to the intervention until immediately prior to inducing VF, at which time the principal investigator opened a sealed envelope for assignment to one of three groups: (1) levosimendan (2) dobutamine or (3) saline placebo. This allowed time for preparation of a fresh dilution of the selected drug. […] Current flow was continued for 3 minutes to prevent spontaneous defibrillation as previously described (Von Planta I, Weil MH. Cardiopulmonary resuscitation in the rat. J Appl Physiol. 1988;65(6):2641-2647). Ventilation was discontinued after onset of VF. Precordial compression was begun with a pneumatically driven mechanical chest compressor after 8 minutes of untreated VF and continued for 6 minutes. These methods have been extensively exercised and have been well-documented (see Von Plata I (supra)) and Sun SJ, Weil MH, Tang W, et al. Combined effects of buffer and adrenergic agent on postresuscitation myocardial function. J Pharm Exp Ther. 1999;291 :773-777). Coincident with the start of precordial compression, the animals were mechanically ventilated. Tidal volume was established at 6.5 ml per kg animal weight, a frequency of 100 min^−1, and on a FiO2 of 1.0.

Male Sprague-Dawley rats [3] = assay: Example 4: levosimendan bolus during cardiopulmonary resuscitation (VF cardiac arrest); type: in vivo, rat; conditions: for ETCO2 / Negative dP/dt / left ventricular diastolic pressure: post-resuscitation (FIG. 23)
Experimental: No anesthetic agents were initially administrated 30 min prior to inducing cardiac arrest. […] Right atrial pressure was measured with a high-sensitivity pressure transducer (model 42584-01; Abbott Critical Care System, North Chicago, Ill.). […] Blood temperature was measured with this sensor. […] Duplicate thermodilution curves were obtained and recorded with the aid of a cardiac output computer (CO-100; Institute of Critical Care Medicine, Palm Springs, Calif.). A PE 50 catheter was advanced through the left femoral artery into the thoracic aorta for sampling arterial blood for analysis of blood gases and for the measurement of aortic pressure with a high-sensitivity pressure transducer (model 42584-01; Abbott Critical Care System). Systolic, diastolic, and the interpreted mean arterial pressure were continuously recorded. […] A 4F polyethylene catheter (model C-PMS-401J; Cook Critical Care, Bloomington, Ind.) was next advanced through the right external jugular vein into the right atrium for inducing VF. A precurved guide wire, supplied with the catheter, was then advanced through the catheter into the right ventricle until an endocardial electrogram was observed. […] Current flow was then reduced to one half and continued for 3 min such as to prevent spontaneous defibrillation. VF was untreated for six min. […] Precordial compressions were performed with a pneumatically driven mechanical chest compressor. These procedures were previously described in greater detail (Von Planta I, supra) and are well-known to those of ordinary skill in the art (see e.g. Tang W, Weil M H, Sun S, Noc M, Yang L, Gazmuri R. Epinephrine increases the severity of postresuscitation myocardial dysfunction. Circulation 1995; 92: 3089-3093 and Sun S, Weil MH, Tang W, Povoas H, Mason E. Combined effect of buffer and adrenergic agent on postresuscitation myocardial function. Pharmacology 1999; 291 (2): 773-777).
Coincident with start of precordial compression, the animals were mechanically ventilated.

[4] = 20 μg/kg bolus during VF, vs placebo
[5] = 4-hour interval following resuscitation, vs saline placebo (FIG. 22)

In the case of `C[C@@H]1CC(=O)NN=C1c1ccc(NN=C(C#N)C#N)cc1` [Levosimendan], the arterial pressures (Male Sprague-Dawley rats [1]; among the three groups, at PR10 and after administration of the drugs (FIG. 4)) is reported as “No significant differences”, the cardiac index (Male Sprague-Dawley rats [1]; post-resuscitation (FIG. 6)) is reported as “comparable increases in cardiac index” and the “contractility as reflected in the dP/dt40” value (Male Sprague-Dawley rats [1]; post-resuscitation (FIG. 9)) is reported as “consistently greater increases in contractility”. The stroke volume (Male Sprague-Dawley rats [1]; post-resuscitation, initially (FIG. 7)) was “significantly greater stroke volumes”, the “left ventricular diastolic (filling) pressures” value (Male Sprague-Dawley rats [1]; vs control and dobutamine-treated animals (FIG. 11)) was “substantially lower and near normal” and the post-resuscitation survival (Male Sprague-Dawley rats [1]; vs dobutamine and placebo (FIG. 12)) was “significantly longer post-resuscitation survival”. For the same compound, the “systemic vascular (arterial) resistance” value (Male Sprague-Dawley rats [1]; vs placebo-treated controls (FIG. 8)) was “Comparable and significant reductions”, the “mean arterial pressure (MAP)” value (Male Sprague-Dawley rats [2]; between the three groups) was “no significant differences” and the duration of survival (Male Sprague-Dawley rats [2]; observed over 72 hours, least with saline placebo (FIG. 15)) was “maximal”. For the same compound, the “left ventricular diastolic (filling) pressures” value (Male Sprague-Dawley rats [2]; post-resuscitation) was “significantly lesser increases”, the cardiac index (Male Sprague-Dawley rats [2]; post-resuscitation (FIG. 13)) was “significant increases in cardiac index” and the dP/dt40 (Male Sprague-Dawley rats [2]; vs saline placebo (FIG. 14)) was “Significantly greater”. The “−dP/dt” value (Male Sprague-Dawley rats [2]; vs saline placebo (FIG. 14)) was “Significantly greater”, the “cumulative number of electrical shocks required for successful defibrillation” value (Male Sprague-Dawley rats [3]; [4]) was “significantly less” and the “interval of CPR prior to successful resuscitation” value (Male Sprague-Dawley rats [3]; [4]) was “significantly shorter”. The MAP (Male Sprague-Dawley rats [3]; [5]) was “Significantly greater; also recorded: increases”, the cardiac index (Male Sprague-Dawley rats [3]; [5]) was “Significantly greater; also recorded: increases” and the dP/dt40 (Male Sprague-Dawley rats [3]; [5]) was “Significantly greater; also recorded: increases”. The CPP (Male Sprague-Dawley rats [3]; levosimendan vs placebo controls, prior to/or after administration) was “No differences”, the ST segment elevation (Male Sprague-Dawley rats [3]; post-resuscitation) was “lesser” and the ETCO2 (Male Sprague-Dawley rats [3]) was “increases”. The “Negative dP/dt” value (Male Sprague-Dawley rats [3]) was “increases”, the “left ventricular diastolic pressure” value (Male Sprague-Dawley rats [3]) was “decreased” and the ETCO2 (Male Sprague-Dawley rats [3]; listed as levosimendan) was “increased”. The “Negative dP/dt” value (Male Sprague-Dawley rats [3]; listed as levosimendan) was “increased”, the “left ventricular diastolic pressure” value (Male Sprague-Dawley rats [3]; listed as levosimendan) was “reduction” and the “duration of post-resuscitation survival” value (Male Sprague-Dawley rats [3]; vs placebo) was “significantly increased”. For the same compound, the “peripheral arterial resistance (PAR)” value (Male Sprague-Dawley rats [3]; vs saline placebo (FIG. 24)) was “significantly decreased”.
